From ChEMBL document CHEMBL1142056, “Structure-activity relationships of the oxindole growth hormone secretagogues” (Bioorg Med Chem Lett, 2005)

Assays:
[1] = target: Growth hormone secretagogue receptor type 1 (Homo sapiens, UniProt Q92847); experiment: Inhibition of [125I]ghrelin binding to human recombinant ghrelin receptor membrane preparation
[2] = Volume of distribution value intravenously administered to rats with 5 mg/kg; format: ADME, organism-based; design: dose 5 mg/kg, route intravenous; conditions: rat, in vivo, iv
[3] = Cmax value in rat after oral dose of 20 mg/k; format: ADME, organism-based; design: route oral; conditions: in vivo, 20 mg/kg
[4] = Half life value intravenously administered to rats with 5 mg/kg; format: ADME, organism-based; design: dose 5 mg/kg, route intravenous; conditions: rat, in vivo, iv
[5] = Clearance value intravenously administered to rats with 5 mg/kg; format: ADME, organism-based; design: dose 5 mg/kg, route intravenous; conditions: rat, in vivo, iv
[6] = Bioavailability value in rat after oral dose of 20 mg/k; format: ADME, organism-based; conditions: in vivo, 20 mg/kg, read-out: Bioavailabiility

Sequence of Growth hormone secretagogue receptor type 1 (Q92847 whole entry): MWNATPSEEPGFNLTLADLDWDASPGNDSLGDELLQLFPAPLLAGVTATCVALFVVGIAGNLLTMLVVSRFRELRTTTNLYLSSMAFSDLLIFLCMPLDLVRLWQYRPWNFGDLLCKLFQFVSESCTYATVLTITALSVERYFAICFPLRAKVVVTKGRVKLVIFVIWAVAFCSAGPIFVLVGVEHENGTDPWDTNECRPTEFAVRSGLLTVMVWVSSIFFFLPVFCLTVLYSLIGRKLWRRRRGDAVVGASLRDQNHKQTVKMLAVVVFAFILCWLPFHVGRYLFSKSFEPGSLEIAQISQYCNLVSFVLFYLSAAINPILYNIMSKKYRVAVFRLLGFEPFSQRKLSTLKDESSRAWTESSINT

| Compound | IC50 [1] | other results |
| --- | --- | --- |
| CCN(CC)CCN1C(=O)[C@@](O)(c2ccc(Cl)cc2Cl)c2c1cc(C(N)=O)cc2C(F)(F)F | 0.02 nM | Vd [2]: 5.4 L/kg; Cmax [3]: 491 ng/mL; half-life [4]: 1.6 h; clearance [5]: 51 mL/min/kg; bioavailability [6]: 28% |
| CCN(CC)CCN1C(=O)[C@@](O)(c2cccc(Cl)c2)c2c1cc(C(N)=O)cc2C(F)(F)F | 15 nM |  |
| CCN(CC)CCN1C(=O)[C@@](O)(c2cc(Cl)ccc2Cl)c2c1cc(C(N)=O)cc2C(F)(F)F | 0.24 nM |  |
| CCN(CC)CCN1C(=O)[C@@](O)(c2ccc(OC)cc2)c2c1cc(C(N)=O)cc2C(F)(F)F | 106 nM |  |
| CCN(CC)CCN1C(=O)C(O)(c2ccccc2)c2c1cc(C(N)=O)cc2C(F)(F)F (configuration not stated) | 116 nM |  |
| CCN(CC)CCN1C(=O)[C@@](O)(c2cccc(OC)c2)c2c1cc(C(N)=O)cc2C(F)(F)F | 77 nM |  |
| CCN(CC)CCN1C(=O)[C@@](O)(c2c(Cl)cccc2Cl)c2c1cc(C(N)=O)cc2C(F)(F)F | 4.2 nM |  |
| CCN(CC)CCN1C(=O)[C@@](O)(c2ccccc2OC)c2c1cc(C(N)=O)cc2C(F)(F)F | 160 nM |  |
| CCN(CC)CCN1C(=O)[C@@](O)(c2ccc(Cl)cc2)c2c1cc(C(N)=O)cc2C(F)(F)F | 83 nM |  |
| CCN(CC)CCN1C(=O)[C@@](O)(c2ccccc2Cl)c2c1cc(C(N)=O)cc2C(F)(F)F | 2.1 nM |  |
| CCN(CC)CCN1C(=O)[C@@](O)(c2cccc(Cl)c2Cl)c2c1cc(C(N)=O)cc2C(F)(F)F | 1.6 nM |  |
| CCN(CC)CCN1C(=O)C(O)(c2ccccc2Cl)c2c1cc(C(N)=O)cc2C(F)(F)F (configuration not stated) | 4 nM |  |
